Assay results from paper PMC5884943, “Discovery of Novel Inhibitors of Indoleamine 2,3-Dioxygenase 1 Through Structure-Based Virtual Screening” (Frontiers in Pharmacology, 2018).

Molecular target: T1, human IDO1 protein (Homo sapiens, UniProt P14902)
T1 construct: purchased ChemPartner Lot; No. 20160706
Assay: Enzymatic IDO1 assay (Absorbance 321 assay)
Format: biochemical
Conditions: for Avg_Inh (%) @ 50uM: average inhibition, Table S2; for Background (%): background signal of the compound in the absorbance assay; for inhibition at 20 µM / Inhibition ratio (%) @ 20 μM: 20 μM compound; for inhibition at 20 µM: read-out: Inhibition ratio (%) @ 20 μM
Description: The standard assay mixture contained modified potassium phosphate buffer at pH 6.5, 100 μM L-tryptophan (Sigma, Cat. […] No. […]). […] Then the assay plate was read at OD321 kinetically in Spectramax. […] Fit the data in […]5.0 software to obtain IC50-values using Equation (2): (2) Y=Bottom+Top-Bottom/1+10^(logIC50-X)×HillSlope where Y stands for inhibition percentage and X stands for compound concentration. All determinations were carried out in duplicate.

T1 sequence (P14902 whole entry): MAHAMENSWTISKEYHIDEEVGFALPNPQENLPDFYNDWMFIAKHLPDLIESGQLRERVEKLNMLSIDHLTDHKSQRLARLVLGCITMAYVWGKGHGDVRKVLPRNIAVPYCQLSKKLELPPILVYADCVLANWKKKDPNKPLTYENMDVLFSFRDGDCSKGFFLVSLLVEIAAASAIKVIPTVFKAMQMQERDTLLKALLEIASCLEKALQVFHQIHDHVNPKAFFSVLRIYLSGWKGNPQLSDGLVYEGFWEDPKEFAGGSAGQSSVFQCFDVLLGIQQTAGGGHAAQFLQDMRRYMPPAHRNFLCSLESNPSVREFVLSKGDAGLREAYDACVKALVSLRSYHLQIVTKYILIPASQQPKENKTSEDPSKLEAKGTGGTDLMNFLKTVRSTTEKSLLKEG

Avg_Inh (%) @ 50uM [%] | Background (%) | Structure (SMILES) | other results
34.49 | 44.32 | COc1cc2c(cc1OC)C(c1ccc(Br)cc1)OCC2 (centres unmarked) [DCI-022] | 
3.68 | 43.33 | CC(=O)c1[nH]c2ccccc2c1C(C)=O [DCI-053] | 
8.78 | 33.45 | c1ccc2c3c(c(CN4CCCCC4)cc2c1)COC3 [DCI-062] | 
35.60 | 64.61 | COc1ccc2ccccc2c1/C=N/NC(N)=S [DCI-084] | 
2.41 | 54.16 | Cc1nn(C)cc1CN(C)C(=O)c1cc2ccccc2oc1=O [DCI-063] | 
42.86 | 56.72 | Cc1cc(=O)oc2cc(OCCSc3ccccc3)ccc12 [DCI-012] | 
4.51 | 48.55 | O=C1c2ccccc2C(=O)N1CNCc1cc(=O)[nH]c(=O)[nH]1 [DCI-054] | 
4.10 | 35.87 | COc1ccc(C2C(C#N)=C(N)Oc3n[nH]c(-c4ccc(Cl)cc4)c32)cc1O (centres unmarked) [DCI-098] | 
43.77 | 52.04 | CCn1c(SCc2nc3ccccc3[nH]2)nc2cc(C(=O)OC)ccc2c1=O [DCI-103] | 
24.55 | 53.30 | Cn1c(=O)c([N+](=O)[O-])c(Nc2ccc(Cl)cc2)c2ccccc21 [DCI-066] | 
 |  | CC(=O)Nc1cccc2ccc3c(c12)CN(Cc1ccccc1)CO3 [DC-I02803] | inhibition at 20 µM: -11.2%; IDO1 inhibitory activity (in words) (SAR discussion): inactive
18.26 | 46.13 | O=c1cnc2ccccc2n1Cc1cccc(Cl)c1 [DCI-010] | 
46.52 | 35.28 | COc1cc(C)c(Cl)cc1S(=O)(=O)Nc1cccc(C)c1C [DCI-070] | 
 |  | O=C(NC(=S)Nc1cccc2cc(O)ccc12)c1ccco1 [DC-I02810] | inhibition at 20 µM: 15.6%
-2.26 | 35.32 | CCC(C(=O)Nc1cccc(C(C)O)c1)c1ccccc1 (centres unmarked) [DCI-082] | 
79.74 | 59.25 | Cc1cc(C)c2c(=O)cc(C(=O)Nc3cc(-c4ccc(F)cc4)no3)oc2c1 [DCI-060] | 
77.96 | 50.53 | O=C(COc1ccc2ccccc2c1)Nc1cccc(Cl)c1 [DCI-086] | 
58.68 | 49.37 | Cc1ccc(C)c(NS(=O)(=O)c2ccc3ccccc3c2)c1 [DCI-096] | 
10.24 | 35.53 | Cc1cccc(C)c1N1CC(C(=O)Nc2cccc3ccccc23)CC1=O (centres unmarked) [DCI-020] | 
-1.55 | 43.56 | O=C(Cc1coc2ccc3ccccc3c12)N1CCCC1 [DCI-095] | 
6.69 | 57.46 | CC(O)Cn1c(=O)c(=O)[nH]c2ccccc21 (centres unmarked) [DCI-051] | 
-2.26 | 53.84 | Cc1ccc(/C=N/Nc2nc3ccccc3[nH]c2=O)cc1 [DCI-023] | 
-3.88 | 42.54 | O=c1cc(NCCN2CCCC2)c2ccccc2o1 [DCI-047] | 

Avg_Inh (%) @ 50uM [%] | Background (%) | Structure (SMILES) | other results
43.35 | 40.50 | Cc1ccccc1C(=O)Oc1ccc2ccc(O)cc2c1 [DCI-076] | 
79.98 | 55.42 | O=C(COc1ccc2ccccc2c1)c1ccc(Br)cc1 [DCI-075] | 
6.52 | 60.07 | Cc1cc(=O)c2ccc(C(F)(F)F)cc2[nH]1 [DCI-038] | 
2.62 | 34.97 | CC(=O)Nc1ccc(NC(=O)C2CC(=O)N(c3ccccc3)C2)cc1 (centres unmarked) [DCI-006] | 
17.41 | 49.85 | COc1ccc(C(=O)c2c[nH]cc2-c2ccccc2)cc1 [DCI-059] | 
-2.20 | 37.17 | CC1CCCN(C(C)CS(=O)(=O)c2ccc3ccccc3c2)C1 (centres unmarked) [DCI-021] | 
85.60 | 60.62 | Cc1cc(-c2cccs2)c2c(N)c(C(=O)NCCc3c[nH]c4ccccc34)sc2n1 [DC-I079] | Inhibition ratio (%) @ 20 μM: 36.42%
81.62 | 44.08 | c1ccc2cc(OCc3nc4ccccc4s3)ccc2c1 [DCI-002] | 
67.78 | 57.09 | Cc1oc2ccc(O)cc2c1C(=O)c1ccc(Br)cc1 [DCI-057] | 
43.67 | 56.25 | Cc1sc2nn[nH]c(=O)c2c1C [DCI-027] | 
-8.21 | 33.33 | c1csc(CNCCCc2nc3ccccc3[nH]2)c1 [DCI-019] | 
45.39 | 56.24 | CC(C)c1ccc(O)c(C(=O)c2cnn(-c3ccccc3)c2)c1 [DCI-024] | 
11.41 | 39.40 | Cc1c(-c2ccccc2)nc(-c2ccccc2)[nH]c1=O [DCI-045] | 
80.83 | 43.32 | Cc1cccc(-c2nnc(SCC(=O)Nc3c(C)cc(C)cc3C)o2)c1 [DC-I102] | Inhibition ratio (%) @ 20 μM: 15.17%
64.05 | 54.63 | O=c1/c(=C/c2c(O)ccc3ccccc23)sc2n1CCCN=2 [DCI-073] | 
-6.51 | 40.56 | COc1cc2sc3c(=O)[nH]c4ccccc4c3c2cc1OC [DCI-029] | 
1.56 | 40.57 | COc1ccc2ccccc2c1CNc1ncn[nH]1 [DCI-092] | 
5.08 | 38.92 | COc1ccc(C(N)=O)cc1NS(=O)(=O)c1cccc2cccnc12 [DCI-016] | 
26.49 | 68.09 | Cc1nc2ccccc2cc1C(=O)N/N=C/c1cccc(Cl)c1 [DCI-065] | 
-4.72 | 37.26 | CC(=O)Nc1ccc(NC(=O)COc2ccc(Br)cc2C)cc1 [DCI-085] | 
 |  | O=C(NC(=S)Nc1c(O)ccc2ccccc12)c1ccccc1I [DC-I02807] | inhibition at 20 µM: 59.6%; IC50 (IDO1 enzymatic level): 25 µM
-2.06 | 34.42 | CC(O)CNCc1ccc(OCc2ccc3c(c2)OCCO3)cc1 (centres unmarked) [DCI-018] | 
-8.99 | 62.57 | Cc1cc(C)c2c(N)c(C(=O)Nc3ccc(S(N)(=O)=O)cc3)sc2n1 [DCI-078] | 

Avg_Inh (%) @ 50uM [%] | Background (%) | Structure (SMILES) | other results
28.34 | 41.98 | Cc1ccc(C(C)C)cc1C(=O)CC1(O)C(=O)N(C)c2ccc(Br)cc21 (centres unmarked) [DCI-014] | 
2.22 | 46.21 | CN(CCCNc1cc(=O)oc2ccccc12)C(=O)c1ccc(F)cc1 [DCI-035] | 
-2.09 | 37.58 | COc1ccc2nc(C(C)O)[nH]c2c1 (centres unmarked) [DCI-097] | 
22.90 | 42.25 | COc1cccc(-c2[nH]nc3c2C(c2ccccc2F)C(C#N)=C(N)O3)c1 (centres unmarked) [DCI-008] | 
5.04 | 42.24 | O=C(NCCCNC(=O)c1cc2ccccc2[nH]1)c1ccc(F)cc1 [DCI-034] | 
4.76 | 38.66 | Cc1ccc(C)c(C(=O)CSc2ncnc3nc[nH]c23)c1 [DCI-013] | 
40.17 | 40.73 | Cc1ccc([N+](=O)[O-])cc1NC(=O)COc1ccc2ccccc2c1Br [DCI-083] | 
98.78 | 66.01 | COc1ccc2ccccc2c1/C=C(\C#N)c1nc2ccccc2[nH]1 [DCI-026] | 
63.45 | 54.35 | O=C(CSc1ncnc2sc3c(c12)CCC3)Nc1ccccc1 [DCI-061] | 
-0.96 | 35.16 | c1ccc(CNCC2OCCc3ccccc32)cc1 (centres unmarked) [DCI-101] | 
79.20 | 42.53 | Cc1ccc(C2C(C#N)=C(N)Oc3ccc4ccc(O)cc4c32)cc1 (centres unmarked) [DCI-069] | 
-1.03 | 36.31 | O=C(CC1Nc2ccccc2NC1=O)NCc1ccccc1 (centres unmarked) [DCI-039] | 
2.13 | 35.52 | O=C(c1ccc(OCCc2ccccc2)cc1)N1CCCC1 [DCI-093] | 
-10.06 | 75.33 | Cc1cc(=O)oc2cc(OCC(O)Cn3c(C)nc4ccccc43)ccc12 (centres unmarked) [DCI-094] | 
22.41 | 39.05 | CC(C)(C)NC(=O)Cc1coc2ccc3ccccc3c12 [DCI-071] | 
13.99 | 39.14 | O=[N+]([O-])C1C(O)c2ccccc2OC1c1ccccc1 (centres unmarked) [DCI-031] | 
95.14 | 34.84 | O=C(CSc1nnc(COc2ccc(Cl)cc2Cl)o1)Nc1ccccn1 [DC-I090] | Inhibition ratio (%) @ 20 μM: 41.43%
40.66 | 31.86 | NNC(=O)c1ccc(COc2ccc3c(c2)CCC3)cc1 [DCI-040] | 
28.06 | 37.16 | Cc1onc(-c2ccccc2Cl)c1C(=O)Nc1cccc([N+](=O)[O-])c1 [DCI-067] | 
76.32 | 74.58 | Cc1cccc(NC(=S)NC(=O)c2cc3ccccc3o2)n1 [DCI-036] | 
25.72 | 41.51 | O=C(NCCc1cccc(Cl)c1)c1cccc2ccccc12 [DCI-104] | 
45.38 | 34.53 | OC1Cc2ccccc2Sc2c(Cl)cccc21 (centres unmarked) [DCI-033] | 
12.24 | 52.98 | Nc1ccccc1/C=C1/C(=O)Nc2ccccc21 [DCI-009] | 
